Source: patent US20120237524A1, “MET INHIBITORS FOR ENHANCING RADIOTHERAPY EFFICACY” (priority 2011, published 2012)

Assays:
ATM kinase = biological target: T1, ATM kinase (Homo sapiens, UniProt Q13315); assay: ATM kinase inhibition in irradiated cells, western blot time course; assay type: cell-based; conditions: MDA-MB-435S or MDA-MB-231, 10 μM, time course after irradiation
T1 construct: endogenous in cells; host or cells: MDA-MB-435S, MDA-MB-231 (ATCC)
Protocol: Met protein expression, Chk2 phosphorylation (p-Chk2) and p65/RelA nuclear translocation in MDA-MB-435S treated with the ATM kinase inhibitor CGK733, and extracted at the indicated time-points after irradiation. ctrl, non-irradiated cells at time zero.
Cell lines (A549, MDA-MB-231, LoVo, MDAMB-4355, U-87MG, U-251, PC3, SF295, DLD1, SK-N-SH) were from ATCC. For ATM kinase inhibition, cells were pre-treated for 4 h before irradiation and then kept in the presence of CGK733 (10 μM in DMSO). siRNAs targeting RELA (ON-TARGET plus SMART pool L-003533-00 Human RELA, NM 021975, Dharmacon, 100 nM), or control siRNAs (ON-TARGET plus SMART pool, siCONTROL Non Targeting siRNA, Dharmacon) were transiently transfected.
Protein expression was investigated in irradiated confluent, serum-starved cells. For fractionation in cytoplasmic and nuclear portions, cells were washed and incubated on ice for 10 min in “buffer A” (10 mM HEPES pH 7.9, 10 mM KCl, 0.1 mM EDTA, 0.5% NP-40, 1 mM dithiothreitol, 1 mM phenylmethylsulfonyl fluoride and a cocktail of protease inhibitors). Supernatants, containing the cytoplasmic extracts, were separated by centrifugation. Pellets were resuspended in “buffer B” (20 mM HEPES pH 7.9, 400 mM KCl, 1 mM EDTA, 1 mM dithiothreitol, 10% glycerol, 1 mM phenylmethylsulfonyl fluoride and a cocktail of protease inhibitors) and incubated at 4° C. for 1 h with vigorous mixing. The resulting nuclear lysates were clarified by high-speed centrifugation. Equal amount of proteins were resolved by SDS-PAGE and analysed by western blot with the following primary antibodies: mouse anti-human Met (DL21 disclosed in Prat et al., Int. J. Cancer 49, 323-328 (1991)), mouse anti-p65/RelA and mouse anti-HIF-1α (BD Biosciences), rabbit anti-phospho-Ser276 and rabbit anticaspase-3 (Cell Signaling), rabbit anti-phospho-Chk2 (T68, R&D Systems). Goat anti-actin (C-11; Santa Cruz Biotechnology) and mouse anti-lamin B (Calbiochem) were used for control of equal cytoplasmic or nuclear protein loading, respectively. […] Densitometric analysis was performed with Quantity One 1-D (Bio-Rad Laboratories). […]

Met = biological target: T2, Met (Homo sapiens, UniProt P08581); assay: Met phosphorylation (immunoprecipitation, anti-phospho-Tyr western blot) in MDA-MB-231; assay type: cell-based; conditions: MDA-MB-231, HGF 50 ng/ml (non-saturating)
T2 construct: Met phosphorylation in MDA-MB-231 treated with HGF (50 nM) and/or IR (10 Gy); endogenous in cells; host or cells: MDA-MB-231 (ATCC)

MDA-MB-4355 spheroids = assay: Branching morphogenesis assay; assay type: cell-based, human; conditions: HGF 5 nM alone (suboptimal concentration), non-irradiated MDA-MB-4355
Protocol: a, Basement membrane invasion by irradiated MDA-MB-231 or U-251 (10 Gy; ctrl, control). Micrographs of transwell filters (10×). b, Aberrant Met-induced branching morphogenesis in irradiated MDA-MB-4355 (10 Gy; ctrl, control), cultured with or without (−) the indicated HGF concentrations. Scale bar: 100 μm.
MDA-MB-4355 spheroids were preformed by single-cell resuspension in 240 mg/ml methylcellulose (Sigma) and culture in nonadherent 96-well plates (Greiner) for 24 h. Spheroids were transferred into a matrix containing 1.3 mg/ml type I collagen from rat tail (BD Biosciences), 10% FBS, and 240 mg/ml methylcellulose. After 24 h, cells were irradiated and/or cultured in the presence of HGF for 7 days. HGF was obtained as a baculovirus recombinant protein in SF9 cells. The conditioned medium from uninfected cells was used as negative control. Images are representative of results obtained in three independent experiments.

U-251 = assay: Cell viability assay with DN30 Fab, with irradiation (10 Gy); assay type: cell-based, human
Protocol: Viability of U-251 irradiated with 10 Gy and/or cultured in the presence of the Fab fragment of the DN30 anti-Met antibody, for 48 h (vehicle: non-irradiated cells). Columns: mean of triplicate analyses of three independent experiments±s.e.m. […] Columns: percentage of cells generating clones (mean of triplicate analyses of two independent experiments±s.e.m., * p<0.05, n=6, paired t-test).
10^3 cells were seeded in 96-well plates and grown for 24 h. Culture medium was replaced with medium containing 1% FBS and DN30 Fab (28 μg/ml) or the vehicle alone (PBS). After 24 h, cells were irradiated (10 Gy). Cell viability was assessed as above.

T1 sequence (Q13315 whole entry): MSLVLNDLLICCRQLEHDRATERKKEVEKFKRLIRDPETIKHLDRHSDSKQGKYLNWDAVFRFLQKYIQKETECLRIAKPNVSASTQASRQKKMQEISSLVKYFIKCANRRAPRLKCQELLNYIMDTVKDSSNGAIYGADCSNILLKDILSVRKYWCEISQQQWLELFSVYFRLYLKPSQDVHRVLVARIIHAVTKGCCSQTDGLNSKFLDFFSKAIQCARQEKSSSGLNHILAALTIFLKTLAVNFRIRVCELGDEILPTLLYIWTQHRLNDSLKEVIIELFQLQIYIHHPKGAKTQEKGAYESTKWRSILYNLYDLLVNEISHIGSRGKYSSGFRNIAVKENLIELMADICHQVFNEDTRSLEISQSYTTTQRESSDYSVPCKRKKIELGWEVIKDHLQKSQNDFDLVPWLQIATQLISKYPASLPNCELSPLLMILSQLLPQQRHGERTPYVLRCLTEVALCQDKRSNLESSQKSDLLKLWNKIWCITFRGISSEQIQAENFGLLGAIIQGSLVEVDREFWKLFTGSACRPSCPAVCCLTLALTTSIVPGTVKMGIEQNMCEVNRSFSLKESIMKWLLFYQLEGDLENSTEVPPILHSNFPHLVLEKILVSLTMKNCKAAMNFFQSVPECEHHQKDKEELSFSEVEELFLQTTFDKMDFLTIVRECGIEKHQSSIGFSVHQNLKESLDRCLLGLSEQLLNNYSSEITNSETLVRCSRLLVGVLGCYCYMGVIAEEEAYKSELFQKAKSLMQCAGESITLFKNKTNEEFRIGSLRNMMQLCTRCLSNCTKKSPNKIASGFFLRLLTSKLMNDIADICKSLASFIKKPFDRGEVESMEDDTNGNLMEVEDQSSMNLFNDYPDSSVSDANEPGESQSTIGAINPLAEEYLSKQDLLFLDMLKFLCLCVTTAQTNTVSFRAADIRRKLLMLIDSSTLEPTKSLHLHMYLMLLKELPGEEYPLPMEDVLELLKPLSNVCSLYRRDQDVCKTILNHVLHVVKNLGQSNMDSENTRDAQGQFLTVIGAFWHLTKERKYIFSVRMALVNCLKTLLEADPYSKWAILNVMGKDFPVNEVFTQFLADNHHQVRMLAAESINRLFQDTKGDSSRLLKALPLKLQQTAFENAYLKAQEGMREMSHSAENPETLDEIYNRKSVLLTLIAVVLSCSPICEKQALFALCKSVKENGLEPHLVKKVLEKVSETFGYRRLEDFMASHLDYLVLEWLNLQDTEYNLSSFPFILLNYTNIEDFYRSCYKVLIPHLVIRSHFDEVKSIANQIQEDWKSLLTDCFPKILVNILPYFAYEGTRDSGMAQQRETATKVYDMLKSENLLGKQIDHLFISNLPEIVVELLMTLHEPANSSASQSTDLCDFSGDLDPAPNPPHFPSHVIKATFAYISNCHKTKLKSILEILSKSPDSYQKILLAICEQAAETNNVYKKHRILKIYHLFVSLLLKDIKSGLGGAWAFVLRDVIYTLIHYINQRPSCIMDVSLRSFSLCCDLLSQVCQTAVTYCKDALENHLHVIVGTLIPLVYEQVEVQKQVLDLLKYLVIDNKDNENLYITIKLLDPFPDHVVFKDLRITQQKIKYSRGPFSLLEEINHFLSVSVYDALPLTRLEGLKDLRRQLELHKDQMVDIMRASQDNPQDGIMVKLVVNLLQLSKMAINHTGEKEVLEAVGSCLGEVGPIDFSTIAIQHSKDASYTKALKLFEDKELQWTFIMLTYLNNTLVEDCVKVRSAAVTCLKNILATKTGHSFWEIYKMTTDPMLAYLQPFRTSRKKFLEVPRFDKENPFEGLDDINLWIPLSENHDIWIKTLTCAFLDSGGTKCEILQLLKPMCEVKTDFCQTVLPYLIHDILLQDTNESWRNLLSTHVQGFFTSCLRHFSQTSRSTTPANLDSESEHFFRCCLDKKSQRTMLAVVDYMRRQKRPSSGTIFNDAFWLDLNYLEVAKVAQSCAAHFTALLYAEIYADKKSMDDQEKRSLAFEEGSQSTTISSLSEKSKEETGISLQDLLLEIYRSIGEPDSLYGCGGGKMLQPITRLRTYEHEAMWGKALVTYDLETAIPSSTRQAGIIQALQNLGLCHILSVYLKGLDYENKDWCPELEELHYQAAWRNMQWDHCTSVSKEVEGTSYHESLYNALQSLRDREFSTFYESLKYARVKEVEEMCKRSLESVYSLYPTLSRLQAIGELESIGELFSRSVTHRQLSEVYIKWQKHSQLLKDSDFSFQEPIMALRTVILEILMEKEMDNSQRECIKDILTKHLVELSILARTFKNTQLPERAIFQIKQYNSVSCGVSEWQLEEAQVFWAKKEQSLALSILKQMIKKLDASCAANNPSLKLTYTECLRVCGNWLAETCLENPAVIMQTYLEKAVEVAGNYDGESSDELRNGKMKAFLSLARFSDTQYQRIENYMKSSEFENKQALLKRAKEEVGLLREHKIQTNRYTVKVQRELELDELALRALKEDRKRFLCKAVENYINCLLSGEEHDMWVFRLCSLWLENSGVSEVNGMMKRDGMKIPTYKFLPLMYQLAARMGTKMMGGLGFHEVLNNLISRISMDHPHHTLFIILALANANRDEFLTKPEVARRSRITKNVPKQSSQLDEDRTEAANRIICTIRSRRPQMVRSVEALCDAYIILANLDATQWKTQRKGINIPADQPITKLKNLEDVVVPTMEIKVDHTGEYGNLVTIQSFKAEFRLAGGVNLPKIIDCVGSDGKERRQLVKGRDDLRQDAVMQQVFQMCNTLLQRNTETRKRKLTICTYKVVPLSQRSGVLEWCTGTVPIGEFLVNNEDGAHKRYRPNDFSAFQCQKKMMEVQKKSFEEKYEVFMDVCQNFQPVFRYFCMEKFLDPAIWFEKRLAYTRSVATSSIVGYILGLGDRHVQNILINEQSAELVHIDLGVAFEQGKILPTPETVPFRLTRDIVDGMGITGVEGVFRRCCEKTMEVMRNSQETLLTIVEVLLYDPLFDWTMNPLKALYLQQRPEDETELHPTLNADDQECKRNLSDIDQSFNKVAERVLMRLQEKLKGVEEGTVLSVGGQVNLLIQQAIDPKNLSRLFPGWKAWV
T2 sequence (P08581 25-1390): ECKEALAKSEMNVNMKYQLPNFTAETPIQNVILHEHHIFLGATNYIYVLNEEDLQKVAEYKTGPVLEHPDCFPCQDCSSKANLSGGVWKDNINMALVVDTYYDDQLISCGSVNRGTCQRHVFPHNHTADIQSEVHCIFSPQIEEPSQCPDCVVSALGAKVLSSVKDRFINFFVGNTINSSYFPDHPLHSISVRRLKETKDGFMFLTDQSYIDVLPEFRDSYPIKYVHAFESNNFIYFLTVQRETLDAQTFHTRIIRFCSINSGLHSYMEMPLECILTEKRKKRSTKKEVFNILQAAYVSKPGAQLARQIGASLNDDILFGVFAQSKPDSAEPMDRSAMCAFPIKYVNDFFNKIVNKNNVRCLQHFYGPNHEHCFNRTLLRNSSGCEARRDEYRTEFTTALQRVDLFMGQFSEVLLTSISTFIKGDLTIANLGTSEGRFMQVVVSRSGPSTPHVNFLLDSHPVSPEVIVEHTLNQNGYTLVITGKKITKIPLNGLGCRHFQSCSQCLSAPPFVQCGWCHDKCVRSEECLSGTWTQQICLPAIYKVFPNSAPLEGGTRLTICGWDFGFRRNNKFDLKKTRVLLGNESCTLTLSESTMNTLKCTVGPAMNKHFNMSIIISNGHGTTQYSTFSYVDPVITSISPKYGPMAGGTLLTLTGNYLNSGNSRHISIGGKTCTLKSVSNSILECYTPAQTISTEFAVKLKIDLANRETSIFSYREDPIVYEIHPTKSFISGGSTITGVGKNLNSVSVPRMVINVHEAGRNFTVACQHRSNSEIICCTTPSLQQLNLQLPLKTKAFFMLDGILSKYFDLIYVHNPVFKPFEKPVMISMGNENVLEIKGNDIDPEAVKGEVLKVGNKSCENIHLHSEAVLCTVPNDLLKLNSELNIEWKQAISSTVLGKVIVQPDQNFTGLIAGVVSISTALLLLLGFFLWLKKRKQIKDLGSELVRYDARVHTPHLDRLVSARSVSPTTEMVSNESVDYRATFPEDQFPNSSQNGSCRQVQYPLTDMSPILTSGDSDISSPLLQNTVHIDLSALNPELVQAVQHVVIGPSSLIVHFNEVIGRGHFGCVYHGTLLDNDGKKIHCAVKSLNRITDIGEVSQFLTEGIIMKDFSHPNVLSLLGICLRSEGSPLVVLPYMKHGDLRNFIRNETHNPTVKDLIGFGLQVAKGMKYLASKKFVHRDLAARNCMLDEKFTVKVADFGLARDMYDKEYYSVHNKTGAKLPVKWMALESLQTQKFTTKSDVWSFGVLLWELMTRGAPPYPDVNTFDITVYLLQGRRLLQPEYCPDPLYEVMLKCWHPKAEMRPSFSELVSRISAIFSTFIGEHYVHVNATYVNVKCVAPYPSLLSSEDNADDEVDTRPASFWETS

O=C(NC(NC(=S)Nc1ccc(F)c([N+](=O)[O-])c1)C(Cl)(Cl)Cl)C(c1ccccc1)c1ccccc1 (stereo not shown) [CGK733]
IR-induced Met protein overexpression (ATM kinase): prevented | IR-induced p65/RelA nuclear translocation (ATM kinase): prevented | IR-induced phosphorylation of the specific ATM substrate Chk2 (ATM kinase): prevented

HGF: Hepatocyte Growth Factor, Met ligand, obtained as a baculovirus recombinant protein in SF9 cells
time to peak of Met phosphorylation (Met): 30 min | induction of branching morphogenesis (MDA-MB-4355 spheroids): incapable of inducing branching morphogenesis

B1: Fab fragment of the DN30 anti-Met antibody: Fab fragment obtained through DN30 papain digestion and affinity purification; induces MET down-regulation (antibody)
heavy: QVQLQQPGTELVKPGASVKLSCKASGYTFTSYWIHWVKQRPGQGLEWIGEINPSSGRTNYNEKFKNKVTVTVDKSSTTAYMQLSNLTSEDSAVYYCASRGYWGQGTTLTVSSAKTTAPSVYPLAPVCGNTTGSSVTLGCLVKGYFPEPVTLTWNSGSLSSGVHTFPAVLQSDLYTLSSSVTVTSSTWPSQSITCNVAHPASSTKVDKKIEPRGPTIKPCPPCKCPAPNLLGGPSVFIFPPKIKDVLMISLSPIVTCVVVDVSEDDPDVQISWFVNNVEVHTAQTQTHREDYNSTLRVVSALPIQHQDWMSGKEFKCKVNNKDLPAPIERTISKPKGSVRAPQVYVLPPPEEEMTKKQVTLTCMVTDFMPEDIYVEWTNNGKTELNYKNTEPVLDSDGSYFMYSKLRVEKKNWVERNSYSCSVVHEGLHNHHTTKSFSRTPGK
light: DIVLTQSPASLAVSLGQRATISCKASQSVDYDGGSYMSWFQQRPGQPPKLLISAASNLESGIPARFSGSGSGTDFTLNIHPVEEEDVATYYCQQSYEDPLTFGAGTKLELKRADAAPTVSIFPPSSEQLTSGGASVVCFLNNFYPKDINVKWKIDGSERQNGVLNSWTDQDSKDSTYSMSSTLTLTKDEYERHNSYTCEATHKTSTSPIVKSFNRNEC
Viability of U-251 (combination vs single treatments) (U-251; U-251 irradiated with 10 Gy and cultured with DN30 Fab for 48 h, p<0.05, n=9): viability significantly reduced with respect to either Fab-DN30 or 10 Gy alone | cell viability decrease (U-251; irradiated cells kept in the presence of DN30 Fab (28 μg/ml), 10 Gy): up to 75%
